US20240358668A1, “METHODS AND CO[…] AM[…] CARD[…] USING (R)-2-AMINO-3-PH[…]” (AXSOME THERAPEUTICS, INC., priority 2021, published 2024)

System: participants with narcolepsy or OSA
Experiment: 1-year OLE study: clinical laboratory assessments (total cholesterol, triglycerides, glucose), OLE baseline to week 40
Format: in vivo, human
Protocol: A 1-year open-label extension (OLE) study was performed with 374 participants to examined whether clinically significant weight loss (≥5%) in this population had favorable effects on biomarkers of cardiovascular risk compared to no such weight loss. The study measured changes in weight and BP (parent study baseline to OLE week 40) and clinical laboratory assessments (OLE baseline to week 40) in participants with narcolepsy (n=124) or OSA (n=250) who received solriamfetol at doses of 75, 150, or 300 mg/d.
We evaluated changes in weight and BP (parent study baseline to OLE week 40) and clinical laboratory assessments (OLE baseline to week 40) in participants with narcolepsy (n=124) or OSA (n=250) from the OLE study.

[1] = Weight loss <5% at Week 40, 75 mg/d
[2] = Weight loss <5% at Week 40, 150 mg/d
[3] = Weight loss <5% at Week 40, 300 mg/d
[4] = Weight loss <5% at Week 40, all doses
[5] = Weight loss ≥5% at Week 40, 75 mg/d

NC(=O)OC[C@H](N)Cc1ccccc1 [Solriamfetol, (R)-2-amino-3-phenylpropyl carbamate]
Glucose Change - Wk 40, Mean (SD) [1]: −0.1 (3.0) mmol/L | Glucose Change - Wk 40, Median [1]: 0.2 mmol/L | Glucose category High, Week 40 [1]: 16(76.2) n (%) | Glucose category Low, Week 40 [1]: 0 n (%) | Glucose category Normal, Week 40 [1]: 5(23.8) n (%) | TC Change - Wk 40, Mean (SD) [1]: −0.1 (0.7) mmol/L | TC Change - Wk 40, Median [1]: 0.2 mmol/L | TG Change - Wk 40, Mean (SD) [1]: 0.2 (0.9) mmol/L | TG Change - Wk 40, Median [1]: -0.1 mmol/L | Total cholesterol category High, Week 40 [1]: 8(38.1) n (%) | Total cholesterol category Low, Week 40 [1]: 0 n (%) | Total cholesterol category Normal, Week 40 [1]: 13(61.9) n (%) | Triglycerides category High, Week 40 [1]: 11(52.4) n (%) | Triglycerides category Low, Week 40 [1]: 0 n (%) | Triglycerides category Normal, Week 40 [1]: 10(47.6) n (%) | Glucose Change - Wk 40, Mean (SD) [2]: −0.1 (1.1) mmol/L | Glucose Change - Wk 40, Median [2]: -0.1 mmol/L | Glucose category High, Week 40 [2]: 47(46.1) n (%) | Glucose category Low, Week 40 [2]: 0 n (%) | Glucose category Normal, Week 40 [2]: 55(53.9) n (%) | TC Change - Wk 40, Mean (SD) [2]: 0.1 (0.7) mmol/L | TC Change - Wk 40, Median [2]: 0.1 mmol/L | TG Change - Wk 40, Mean (SD) [2]: −0.1 (1.0) mmol/L | TG Change - Wk 40, Median [2]: -0.0 mmol/L | Total cholesterol category High, Week 40 [2]: 46(44.2) n (%) | Total cholesterol category Low, Week 40 [2]: 0 n (%) | Total cholesterol category Normal, Week 40 [2]: 58(55.8) n (%) | Triglycerides category High, Week 40 [2]: 39(37.5) n (%) | Triglycerides category Low, Week 40 [2]: 0 n (%) | Triglycerides category Normal, Week 40 [2]: 65(62.5) n (%) | Glucose Change - Wk 40, Mean (SD) [3]: −0.1 (1.9) mmol/L | Glucose Change - Wk 40, Median [3]: 0.0 mmol/L | Glucose category High, Week 40 [3]: 69(48.9) n (%) | Glucose category Low, Week 40 [3]: 0 n (%) | Glucose category Normal, Week 40 [3]: 72(51.1) n (%) | TC Change - Wk 40, Mean (SD) [3]: 0.1 (0.6) mmol/L | TC Change - Wk 40, Median [3]: 0.100 mmol/L | TG Change - Wk 40, Mean (SD) [3]: 0.0 (0.7) mmol/L | TG Change - Wk 40, Median [3]: -0.1 mmol/L | Total cholesterol category High, Week 40 [3]: 46(31.9) n (%) | Total cholesterol category Low, Week 40 [3]: 0 n (%) | Total cholesterol category Normal, Week 40 [3]: 98(68.1) n (%) | Triglycerides category High, Week 40 [3]: 50(34.7) n (%) | Triglycerides category Low, Week 40 [3]: 0 n (%) | Triglycerides category Normal, Week 40 [3]: 94(65.3) n (%) | Glucose Change - Wk 40, Mean (SD) [4]: −0.1 (1.8) mmol/L | Glucose Change - Wk 40, Median [4]: -0.0 mmol/L | Glucose category High, Week 40 [4]: 132(50.0) n (%) | Glucose category Low, Week 40 [4]: 0 n (%) | Glucose category Normal, Week 40 [4]: 132(50.0) n (%) | TC Change - Wk 40, Mean (SD) [4]: 0.1 (0.6) mmol/L | TC Change - Wk 40, Median [4]: 0.100 mmol/L | TG Change - Wk 40, Mean (SD) [4]: −0.0 (0.9) mmol/L | TG Change - Wk 40, Median [4]: -0.0 mmol/L | Total cholesterol category High, Week 40 [4]: 100(37.2) n (%) | Total cholesterol category Low, Week 40 [4]: 0 n (%) | Total cholesterol category Normal, Week 40 [4]: 169(62.8) n (%) | Triglycerides category High, Week 40 [4]: 100(37.2) n (%) | Triglycerides category Low, Week 40 [4]: 0 n (%) | Triglycerides category Normal, Week 40 [4]: 169(62.8) n (%) | Glucose Change - Wk 40, Mean (SD) [5]: -0.5 mmol/L | Glucose Change - Wk 40, Median [5]: -0.5 mmol/L | Glucose category High, Week 40 [5]: 1(100) n (%) | Glucose category Low, Week 40 [5]: 0 n (%) | Glucose category Normal, Week 40 [5]: 0 n (%) | TC Change - Wk 40, Mean (SD) [5]: 1.1 mmol/L | TC Change - Wk 40, Median [5]: 1.1 mmol/L | TG Change - Wk 40, Mean (SD) [5]: 0.3 mmol/L | TG Change - Wk 40, Median [5]: 0.3 mmol/L | Total cholesterol category High, Week 40 [5]: 0 n (%) | Total cholesterol category Low, Week 40 [5]: 0 n (%) | Total cholesterol category Normal, Week 40 [5]: 1(100) n (%)
